The results in this text go back to patent publication US20060173066A1, “Remedy for diabetes” (Kyowa Hakko Kogyo Co., Ltd., priority 2003, published 2006).

The subject of test [1] is KK-Ay/Ta Jcl mice of a type 2 diabetic model. In words: Example 2: serum-insulin level after 18 hours fasting in mice fed CE-2 feed with 1% by weight of test substance. To be noted: for Serum-Insulin Level: 11th day after 18 hours fasting, mean ± standard error, n=5. In kind it is in vivo. An excerpt:
(§1) KK-Ay/Ta Jcl mice (Clea Japan, Inc.; male;,six weeks age) (15 mice) of a type 2 diabetic model were divided into three groups each comprising five mice and named group 1 to group 3.
(§2) The mice of the groups 1 to 3 were made free to take feed and water. A commercially available feed CE-2 (manufactured by Clea Japan, Inc.) was ingested to the mice of group 1. CE-2 to which 1% by weight of trans-4-hydroxy-L-proline ethyl ester (manufactured by Sanyo Chemical Laboratory Co., Ltd.; hereinafter, abbreviated as hydroxyproline ethyl ester) was added was ingested to the mice of group 2. CE-2 to which 1% by weight of trans-N,O-diacetyl-4-hydroxy-L-proline oleyl ester (manufactured by Nissei Kagaku; hereinafter, abbreviated as diacetylhydroxyproline oleyl ester) was added was ingested to the mice of group 3.
(§3) On the initial day of the test and on the 10th day thereafter, blood was collected from tail vein and blood-sugar level upon non-fasting was measured by a Medisafe Reader GR-101. The mice were fasted for 18 hours during the 10th day to the 11th day after the start of the test and whole blood was collected from descending vena cava to prepare serum. The serum-insulin level was measured by a Levi Insulin Kit Mouse-T. The value was shown by mean value±standard error (n=5) and statistic ratio of risk (p value) was determined by a t-test. With regard to the ingested amounts during the test periods, there was no significant difference among the groups 1 to 3.

Test [2] has the same test system. In words: Example 2: non-fasting blood-sugar level in mice fed CE-2 feed with 1% by weight of test substance. Format: in vivo. The conditions noted are these: for antidiabetic action (conclusion from Table 3): 10 days; for Blood-Sugar Level, 10th Day of the Test / Blood-Sugar Level, Initial Day of the Test: non-fasting, tail vein blood, mean ± standard error, n=5; for Blood-Sugar Level, Initial Day of the Test: initial day (baseline).
Source text: as §1, §2, §3

Test [3] shares this test system. In words: Example 1: non-fasting blood-sugar level in mice fed CE-2 feed with 1% by weight of test substance. Format: in vivo.
Source text: (§4) KK-Ay/Ta Jcl mice (Clea Japan, Inc.; male; six weeks age) (15 mice) of a type 2 diabetic model were divided into three groups each comprising five mice and named group 1 to group 3.
(§5) The mice of the groups 1 to 3 were made free to take feed and water. A commercially available feed CE-2 (manufactured by Clea Japan, Inc.) was ingested to the mice of group 1. CE-2 to which 1% by weight of trans-4-hydroxy-L-proline (manufactured by Kyowa Hakko Kogyo; hereinafter, abbreviated as hydroxyproline) was added was ingested to the mice of group 2. CE-2 to which 1% by weight of trans-N-acetyl-4-hydroxy-L-proline (manufactured by Kyowa Hakko Kogyo; hereinafter, abbreviated as N-acetylhydroxyproline) was added was ingested to the mice of group 3.
as §3, with “17th” for “10th”, “GR-101 (manufactured by Thermo Co.).” for “GR-101.”, “18th” for “11th”, “Mouse-T (manufactured by Shibayagi).” for “Mouse-T.”

Test [4] has the same test system. Description: Example 3: blood-sugar level after oral glucose load in fasted mice. Format: in vivo. To be noted: 1 g/kg B.W. oral. The procedure: KK-Ay/Ta Jcl mice (Clea Japan, Inc.; male; six weeks age) (16 mice) of a type 2 diabetic model were divided into 2 groups each comprising 8 mice and named group 1 and group 2.
After fasting for 18 hours, a physiological saline solution was orally administered to the mice of the group 1 while, to the mice of the group 2, 1 g/kg body weight (hereinafter, referred to as “B.W.”) of a 20% (w/v) aqueous solution of the N-acetylhydroxyproline (dissolved in a physiological saline solution) was orally administered. After 1 hour, 2 g/kg B.W. of a 40% (w/v) aqueous solution of glucose was orally administered to the mice of the groups 1 and 2 to load with sugar. Blood was collected from tail vein 60 minutes before (−60 minutes) administration of the aqueous glucose solution, upon the administration (0 minute) and 30 and 120 minutes after the administration and blood-sugar levels were measured by a Medisafe Reader GR-101. The value was shown by mean value±standard error (n=8) and statistic ratio of risk (p value) was determined by a t-test.

Test [5] has the same test system. In words: Example 1: serum-insulin level after 18 hours fasting in mice fed CE-2 feed with 1% by weight of test substance. Format: in vivo.
Source text: as §4, §5
as §3, with “17th” for “10th”, “GR-101 (manufactured by Thermo Co.).” for “GR-101.”, “18th” for “11th”, “Mouse-T (manufactured by Shibayagi).” for “Mouse-T.”

The subject of another test is C2C12 cells. Description: Example 6: consumption of glucose of differentiated C2C12 cells (glucose concentration in supernatant). In kind it is cell-based, mouse. To be noted: for action on insulin effect on muscle (conclusion from Table 8): 100 μg/ml with insulin 0.1 μg/ml; for insulin concentration necessary to achieve the same result if insulin is used solely: relative to 0.1 μg/ml insulin used with 100 μg/ml test substance (1 μg/ml); for Glucose (concentration in supernatant after incubation): 3 days incubation, mean ± standard deviation, n=3. The procedure:
Each 1.2×10^5 C2C12 cells (cell strain derived from striated muscles of mouse; Dainippon Pharmaceutical Co., Ltd.) was inoculated on a 12-well plate and incubated at 37° C. for 3 days in a CO2 incubator (5% CO2/95% air) with a DMEM medium (manufactured by Invitrogen) to which 10% fetal bovine serum (manufactured by Invitrogen) was added. When the cells became confluent, the medium was exchanged to a DMEM medium to which 2% horse serum (manufactured by Invitrogen) was added and incubation was further conducted for 4 days to differentiate to myotubes. The medium was exchanged once again with a DMEM medium to which 2% horse serum was added and further incubated for 3 days after addition of bovine insulin (manufactured by Invitrogen) so as to make its final concentration 1 μg/ml or 0.1 μg/ml, a mixture of bovine insulin and trans-4-hydroxy-L-proline methyl ester (manufactured by Kokusan Chemical Co., Ltd.; hereinafter, referred to as hydroxyproline methyl ester) so as to make their final concentrations 0.1 μg/ml and 100 μg/ml, respectively or a mixture of bovine insulin and hydroxyproline ethyl ester so as to make their final concentrations 0.1 μg/ml and 100 μg/ml, respectively. Each of the supernatant liquids after the incubation was recovered and glucose concentration was measured by a Glucose CII Test Wako (manufactured by Wako Pure Chemical Industries, Ltd.) whereby consumption of glucose of the differentiated C2C12 cells was investigated. The values are shown by mean value±standard deviation (n=3, mg/l) and statistic ratio of risk (p value) was determined by a t-test.

Where [6] appears, read: co-presence of 0.1 μg/ml of insulin and 100 μg/ml of test substance, vs insulin 0.1 μg/ml.
[7] abbreviates: test substance 100 μg/ml together with insulin 0.1 μg/ml.

For the compound `CCCCCCCC/C=C\CCCCCCCCOC(=O)[C@@H]1C[C@@H](OC(C)=O)CN1C(C)=O` (relative stereo) [diacetylhydroxyproline oleyl ester, trans-N,O-diacetyl-4-hydroxy-L-proline oleyl ester], in test [1], the “antidiabetic action by improving insulin resistance (conclusion from Tables 3 and 4)” value is on record as “show an antidiabetic action by improving the insulin resistance”; the “Serum-Insulin Level” value came out at 0.64 ± 0.12 ng/mL. Further, in test [2], the “antidiabetic action (conclusion from Table 3)” value was “antidiabetic action”; the “Blood-Sugar Level, 10th Day of the Test” value was found to be 215.2 ± 20.3 mg/dL; the “Blood-Sugar Level, Initial Day of the Test” value turned out to be 241.0 ± 11.0 mg/dL.

Turning to `CC(=O)N1C[C@H](O)C[C@H]1C(=O)O` [N-acetylhydroxyproline, trans-N-acetyl-4-hydroxy-L-proline], the “antidiabetic action (conclusion from Table 1)” value in test [3] (17 days) is “antidiabetic action”. The “Blood-Sugar Level, 17th Day of the Test” value in test [3] (non-fasting, tail vein blood, 17th day, mean ± standard error, n=5) is 226.2 ± 12.9 mg/dL. Moreover, the “Blood-Sugar Level, Initial Day of the Test” value in test [3] (non-fasting, tail vein blood, initial day (baseline), mean ± standard error, n=5) was determined as 241.0 ± 15.5 mg/dL. The “antidiabetic action (conclusion from Table 5)” value in test [4] (glucose load) is reported as “antidiabetic action”. For the same compound, the “Blood-Sugar Level, 30 min” value in test [4] (30 minutes after glucose 2 g/kg, mean ± standard error, n=8) is 407.1 ± 17.1 mg/dL. In addition, the “Blood-Sugar Level, −60 min” value in test [4] (60 minutes before glucose 2 g/kg (baseline, at dosing), mean ± standard error, n=8) worked out at 159.4 ± 5.6 mg/dL. In test [4] (120 minutes after glucose 2 g/kg, mean ± standard error, n=8), the “Blood-Sugar Level, 120 min” value worked out at 210.4 ± 14.4 mg/dL. Besides, the “Blood-Sugar Level, 0 min” value in test [4] (upon glucose administration 2 g/kg, mean ± standard error, n=8) is 179.9 ± 11.6 mg/dL. Besides, the “antidiabetic action by improving insulin resistance (conclusion from Tables 1 and 2)” value in test [5] is “show an antidiabetic action by improving the insulin resistance”. Moreover, the “Serum-Insulin Level” value in test [5] (18th day after 18 hours fasting, mean ± standard error, n=5) came out at 0.69 ± 0.06 ng/mL.

Consider `CCOC(=O)[C@@H]1C[C@@H](O)CN1` [hydroxyproline ethyl ester, trans-4-hydroxy-L-proline ethyl ester], for which, in the test with C2C12 cells, the “action on insulin effect on muscle (conclusion from Table 8)” value is listed as “potentiate the action of insulin to the muscle” and the “insulin concentration necessary to achieve the same result if insulin is used solely” value is reported as “ten-fold”. In the test on C2C12 cells (setting [6]), the “consumption of glucose of C2C12 cells” value is recorded as “significantly increased”. The compound also came in with a Glucose (concentration in supernatant after incubation) with C2C12 cells (setting [7]) of 984 ± 29 mg/L. In test [1], the “antidiabetic action by improving insulin resistance (conclusion from Tables 3 and 4)” value is recorded as “show an antidiabetic action by improving the insulin resistance”; the “Serum-Insulin Level” value amounted to 0.52 ± 0.10 ng/mL. Also, in test [2], the “antidiabetic action (conclusion from Table 3)” value is “antidiabetic action”; the “Blood-Sugar Level, 10th Day of the Test” value turned out to be 217.2 ± 11.3 mg/dL; the “Blood-Sugar Level, Initial Day of the Test” value came out at 253.0 ± 9.5 mg/dL.

For `COC(=O)[C@@H]1C[C@@H](O)CN1` [hydroxyproline methyl ester, trans-4-hydroxy-L-proline methyl ester], in the test with C2C12 cells, the “action on insulin effect on muscle (conclusion from Table 8)” value is reported as “potentiate the action of insulin to the muscle” and the “insulin concentration necessary to achieve the same result if insulin is used solely” value was “ten-fold”. For the same compound, the “consumption of glucose of C2C12 cells” value in the test on C2C12 cells (setting [6]) is “significantly increased”. Moreover, the Glucose (concentration in supernatant after incubation) in the test on C2C12 cells (setting [7]) stood at 926 ± 47 mg/L.

Regarding “Insulin: bovine insulin (manufactured by Invitrogen) [reference compound]”, the “consumption of glucose of C2C12 cells” value in the test on C2C12 cells (addition of 0.1 μg/ml of insulin, vs nothing added) was “significantly promoted”. Also, the “Glucose (concentration in supernatant after incubation)” value in the test on C2C12 cells (insulin 0.1 μg/ml alone) is 1260 ± 15 *^1 mg/; in the test with C2C12 cells (insulin 1 μg/ml alone), 942 ± 34 mg/L.
